Reference: patent publication US20260109707A1, “HETEROBIFUNCTIONAL COMPOUNDS AND METHODS OF TREATING DISEASE” (Halda Therapeutics OpCo. Inc., priority 2022, published 2026)
Where two headings read alike, the source gives them in different places.

Tests used:
T47D cells = assay: Cellular growth inhibition assay for T47D cells (CellTiter-Glo, 72 hours); format: cell-based, human; conditions: 72 hours treatment
In short: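 Luminescence from CellTiter-Glo 2.0 after 72 h of compound exposure gives the viability signal. Cells grew in insulin-supplemented (0.2 units/mL) DMEM with 10% FBS and were treated one day after seeding at 0.5% DMSO. GI50 values come from four-parameter nonlinear regression.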

[1] = tested on: T-Rex 293 cell line SC3 cells lacking increased expression of androgen receptor protein; assay: Cellular growth inhibition assay, T-Rex 293 SC3 cells without doxycycline (CellTiter-Glo, 72 hours); format: cell-based; conditions: T-Rex 293 cell line SC3 cells not exposed to doxycycline (lacking increased androgen receptor expression)
In short: (§1)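 Doxycycline (10 ng/mL) was either included or omitted to toggle wild-type androgen receptor expression in SC3 cells, a T-Rex 293 clone, grown in stripped-serum, phenol red-free medium. After 72 hours with compound, viable cells were quantified by CellTiter-Glo 2.0.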

VCaP cells = assay: Cellular growth inhibition assay for VCaP cells (CellTiter-Glo, 72 hours); format: cell-based, human
In short: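 Luminescent viability signal after 72 h of compound exposure gave GI50 values by four-parameter nonlinear regression. Compounds were added in 0.5% DMSO to cells plated 24 h earlier at 5000/well in DMEM containing 10% FBS.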

[2] = tested on: T-Rex 293 cell line SC3 cells having increased expression of androgen receptor protein due to exposure to doxycycline; assay: Cellular growth inhibition assay, T-Rex 293 SC3 cells with doxycycline (CellTiter-Glo, 72 hours); format: cell-based; conditions: T-Rex 293 SC3 cells with increased androgen receptor expression due to doxycycline (10 ng/mL)
In short: as §1

SMILES | GI50 (T47D cells; Homo sapiens, T47D, 72 h) [nM] | GI50 (VCaP cells; Homo sapiens, VCaP, 72 h) [nM] | GI50 (T47D cells) [nM] | GI50 (VCaP cells) [nM] | GI50 ([1]; 72 h) [nM] | GI50 ([2]; 72 h) [nM] | GI50 [1] [nM] | GI50 [2] [nM]
Cc1sc2c(c1C)C(c1ccc(OC3CC4(CCN(c5ccc(C(=O)N[C@H]6CC[C@H](Oc7ccc(C#N)c(Cl)c7)CC6)cc5)CC4)C3)cc1)=N[C@@H](Cc1ncco1)c1nnc(C)n1-2 [I-108] | < 500 | < 500 |  |  | < 500 | < 500 |  | 
Cc1sc2c(c1C)C(c1ccc(CCNC(=O)NCc3ccc(C(=O)N[C@H]4CC[C@H](Oc5ccc(C#N)c(Cl)c5)CC4)nn3)cc1)=N[C@@H](Cc1ncco1)c1nnc(C)n1-2 [I-293] | 500 to 1500 | < 500 |  |  | > 3000 | < 500 |  | 
Cc1sc2c(c1C)C(c1ccc(CNC(=O)NCc3ccc(C(=O)N[C@H]4CC[C@H](Oc5ccc(C#N)c(Cl)c5)CC4)nn3)cc1)=N[C@@H](Cc1ncco1)c1nnc(C)n1-2 [I-289] | 1500 to 3000 | 1500 to 3000 |  |  | > 3000 | < 500 |  | 
Cc1sc2c(c1C)C(c1ccc(N3CCC[C@H](C(=O)NCc4ccc(C(=O)N[C@H]5CC[C@H](Oc6ccc(C#N)c(Cl)c6)CC5)nn4)C3)cc1)=N[C@@H](Cc1ncco1)c1nnc(C)n1-2 [I-294] | < 500 | < 500 |  |  | > 3000 | < 500 |  | 
Cc1sc2c(c1C)C(c1ccc(CN(C)C(=O)CN(C)c3ccc(C(=O)N[C@H]4CC[C@H](Oc5ccc(C#N)c(Cl)c5)CC4)nn3)cc1)=N[C@@H](Cc1ncco1)c1nnc(C)n1-2 [I-299] | 1500 to 3000 | < 500 |  |  | > 3000 | 1500 to 3000 |  | 
Cc1sc2c(c1C)C(c1ccc(NCC(=O)N3CCC(c4ccc(C(=O)N[C@H]5CC[C@H](Oc6ccc(C#N)c(Cl)c6)CC5)nn4)CC3)cc1)=N[C@H](Cc1ncco1)c1nnc(C)n1-2 [I-248] | < 500 | < 500 |  |  | 500 to 1500 | < 500 |  | 
Cc1sc2c(c1C)C(c1ccc(CC3CC4(CCN(c5ccc(C(=O)N[C@H]6CC[C@H](Oc7ccc(C#N)c(Cl)c7)CC6)nn5)CC4)C3)nc1)=N[C@@H](Cc1ncco1)c1nnc(C)n1-2 [I-347] | < 500 | < 500 |  |  | < 500 | < 500 |  | 
Cc1sc2c(c1C)C(c1ccc(C#CC3CC4(C3)CN(c3ccc(C(=O)N[C@H]5CC[C@H](Oc6ccc(C#N)c(Cl)c6)CC5)nn3)C4)cc1)=N[C@@H](C)c1nnc(C)n1-2 [I-311] | < 500 | < 500 |  |  | < 500 | < 500 |  | 
CCNC(=O)C[C@@H]1N=C(c2ccc(N(C)CCC3CCN(c4ccc(C(=O)N[C@H]5CC[C@H](Oc6ccc(C#N)c(Cl)c6)CC5)nn4)CC3)cc2)c2c(sc(C)c2C)-n2c(C)nnc21 [I-34] | 500 to 1500 | 500 to 1500 |  |  | 500 to 1500 | < 500 |  | 
Cc1sc2c(c1C)C(c1ccc(C(C)(C)N3CC4(CCN(c5ccc(C(=O)N[C@H]6CC[C@H](Oc7ccc(C#N)c(Cl)c7)CC6)nn5)CC4)C3)cc1)=N[C@@H](Cc1ncco1)c1nnc(C)n1-2 [I-391] | > 3000 | > 3000 |  |  | > 3000 | < 500 |  | 
Cc1sc2c(c1C)C(c1ccc(-c3ccc(C4CCN(c5ccc(C(=O)NC6CCC(Oc7ccc(C#N)c(Cl)c7)CC6)nn5)CC4)cc3)cc1)=N[C@H](Cc1ncco1)c1nnc(C)n1-2 (stereo partly drawn) [I-370] | 500 to 1500 | > 3000 |  |  | > 3000 | < 500 |  | 
Cc1sc2c(c1C)C(c1ccc(OC3CC4(CCN(c5ccc(C(=O)N[C@H]6CC[C@H](Oc7ccc(C#N)c(Cl)c7)CC6)nn5)CC4)C3)cc1)=N[C@@H](CC#N)c1nnc(C)n1-2 [I-83] | < 500 | < 500 |  |  | > 3000 | < 500 |  | 
Cc1sc2c(c1C)C(c1ccc(C(=O)N(C)CCCc3ccc(C(=O)N[C@H]4CC[C@H](Oc5ccc(C#N)c(Cl)c5)CC4)nn3)cc1)=N[C@@H](Cc1ncco1)c1nnc(C)n1-2 [I-320] | > 3000 | > 3000 |  |  | > 3000 | > 3000 |  | 
Cc1sc2c(c1C)C(c1ccc(C(C)(C)C3CC4(CCCN(c5ccc(C(=O)N[C@H]6CC[C@H](Oc7ccc(C#N)c(Cl)c7)CC6)nn5)C4)C3)cc1)=N[C@@H](C)c1nnc(C)n1-2 (stereo partly drawn) [I-423] | 500 to 1500 | > 3000 |  |  | 1500 to 3000 | < 500 |  | 
Cc1sc2c(c1C)C(c1ccc(N(C)CC(=O)NCc3ccc(C(=O)N[C@H]4CC[C@H](Oc5ccc(C#N)c(Cl)c5)CC4)nn3)cc1)=N[C@H](Cc1ncco1)c1nnc(C)n1-2 [I-333] | 500 to 1500 | < 500 |  |  | > 3000 | > 3000 |  | 
Cc1sc2c(c1C)C(c1ccc(CC(=O)NCCc3ccc(C(=O)N[C@H]4CC[C@H](Oc5ccc(C#N)c(Cl)c5)CC4)nn3)cc1)=N[C@@H](Cc1ncco1)c1nnc(C)n1-2 [I-317] | < 500 | < 500 |  |  | 500 to 1500 | < 500 |  | 
Cc1sc2c(c1C)C(c1ccc(OC3CC4(CCN(c5ccc(C(=O)N[C@H]6CC[C@H](Oc7ccc(C#N)c(Cl)c7)CC6)nc5)CC4)C3)cc1)=N[C@@H](Cc1ncco1)c1nnc(C)n1-2 [I-89] | < 500 | < 500 |  |  | < 500 | < 500 |  | 
CCNC(=O)C[C@@H]1N=C(c2ccc(CCC3CN(c4ccc(C(=O)N[C@H]5CC[C@H](Oc6ccc(C#N)c(Cl)c6)CC5)nn4)C3)cc2)c2c(sc(C)c2C)-n2c(C)nnc21 [I-31] | 500 to 1500 | < 500 |  |  | 500 to 1500 | < 500 |  | 
Cc1sc2c(c1C)C(c1ccc(OC3CC4(C3)CC3(CCN(c5ccc(C(=O)N[C@H]6CC[C@H](Oc7ccc(C#N)c(Cl)c7)CC6)nn5)CC3)C4)cc1)=N[C@@H](C)c1nnc(C)n1-2 [I-435] | > 3000 | < 500 |  |  | > 3000 | < 500 |  | 

Now from value to molecule, other results behind:

GI50 (T47D cells; Homo sapiens, T47D, 72 h) [nM] | GI50 (VCaP cells; Homo sapiens, VCaP, 72 h) [nM] | GI50 (T47D cells) [nM] | GI50 (VCaP cells) [nM] | SMILES | GI50 ([1]; 72 h) [nM] | GI50 ([2]; 72 h) [nM] | GI50 [1] [nM] | GI50 [2] [nM]
500 to 1500 | < 500 |  |  | Cc1sc2c(c1C)C(c1ccc(C[C@H]3C[C@H]([C@H]4CCCN(c5ccc(C(=O)N[C@H]6CC[C@H](Oc7ccc(C#N)c(Cl)c7)CC6)nn5)C4)C3)cc1)=N[C@@H](Cc1ncco1)c1nnc(C)n1-2 [I-131] | < 500 | < 500 |  | 
< 500 | < 500 |  |  | Cc1sc2c(c1C)C(c1ccc(OCC[C@@H]3CCCN(c4ccc(C(=O)N[C@H]5CC[C@H](Oc6ccc(C#N)c(Cl)c6)CC5)nn4)C3)cc1)=N[C@@H](Cc1ncco1)c1nnc(C)n1-2 [I-256] | < 500 | < 500 |  | 
500 to 1500 | < 500 |  |  | Cc1sc2c(c1C)C(c1ccc(OC[C@@H]3CCCN(c4ccc(C(=O)N[C@H]5CC[C@H](Oc6ccc(C#N)c(Cl)c6)CC5)nn4)C3)cc1)=N[C@@H](Cc1ncco1)c1nnc(C)n1-2 [I-218] | < 500 | < 500 |  | 
 |  | > 3000 | > 3000 | Cc1sc2c(c1C)C(c1ccc(CCC3CCC4CN(c5ccc(C(=O)N[C@H]6CC[C@H](Oc7ccc(C#N)c(Cl)c7)CC6)nn5)CCN4C3)cc1)=NC(Cc1ncco1)c1nnc(C)n1-2 (stereo partly drawn) [I-401] |  |  | > 3000 | > 3000
< 500 | < 500 |  |  | Cc1sc2c(c1C)C(c1ccc(CC3CC(C4CCCN(c5ccc(C(=O)N[C@H]6CC[C@H](Oc7ccc(C#N)c(Cl)c7)CC6)nn5)C4)C3)cc1)=N[C@@H](Cc1ncco1)c1nnc(C)n1-2 (stereo partly drawn) [I-122] | < 500 | < 500 |  | 
> 3000 | < 500 |  |  | Cc1sc2c(c1C)C(c1ccc(CC3CC4(CCN(c5ccc(C(=O)N[C@H]6CC[C@H](Oc7ccc(C#N)c(Cl)c7)CC6)nn5)CC4)C3)cc1)=N[C@H](Cc1ncco1)c1nnc(C)n1-2 [I-111] | > 3000 | < 500 |  | 
< 500 | < 500 |  |  | Cc1sc2c(c1C)C(c1ccc([C@H]3C[C@H](C[C@H]4CCCN(c5ccc(C(=O)N[C@H]6CC[C@H](Oc7ccc(C#N)c(Cl)c7)CC6)nn5)C4)C3)cc1)=N[C@@H](Cc1ncco1)c1nnc(C)n1-2 [I-358] | > 3000 | < 500 |  | 
> 3000 | > 3000 |  |  | Cc1sc2c(c1C)C(c1ccc([C@H]3C[C@@H](C4CC5(CCN(c6ccc(C(=O)N[C@H]7CC[C@H](Oc8ccc(C#N)c(Cl)c8)CC7)nn6)CC5)C4)C3)cc1)=N[C@@H](Cc1ncco1)c1nnc(C)n1-2 [I-380] | > 3000 | > 3000 |  | 
 |  | < 500 | < 500 | Cc1sc2c(c1C)C(c1ccc(CC3CCC4(CC3)CCN(c3ccc(C(=O)N[C@H]5CC[C@H](Oc6ccc(C#N)c(Cl)c6)CC5)nn3)CC4)cc1)=N[C@@H](Cc1ncco1)c1nnc(C)n1-2 [I-365] |  |  | 500 to 1500 | < 500
< 500 | < 500 |  |  | Cc1sc2c(c1C)C(c1ccc([C@H]3C[C@@H](C4CCN(c5ccc(C(=O)N[C@H]6CC[C@H](Oc7ccc(C#N)c(Cl)c7)CC6)nn5)CC4)C3)cc1)=N[C@H](Cc1ncco1)c1nnc(C)n1-2 [I-372] | < 500 | < 500 |  | 
1500 to 3000 | 1500 to 3000 |  |  | Cc1sc2c(c1C)C(c1ccc(C[C@H]3C[C@@]4(CCCN(c5ccc(C(=O)N[C@H]6CC[C@H](Oc7ccc(C#N)c(Cl)c7)CC6)nn5)C4)C3)cc1)=N[C@@H](Cc1ncco1)c1nnc(C)n1-2 [I-118] | > 3000 | > 3000 |  | 
